Source: ChEMBL document CHEMBL3046502, “In vitro antimicrobial and antitubercular studies of novel 6-substituted (pyrrolidin-1-yl)-2(1H)-pyridinones” (2012)
≈ marks a conversion by molar mass, not a printed value.

Key:
Type in all cases: functional
[1] = system: Pseudomonas aeruginosa; assay: Antimicrobial activity against Pseudomonas aeruginosa MTCC 2488 by broth microdilution method
[2] = system: Escherichia coli; assay: Antimicrobial activity against Escherichia coli MTCC 442 by broth microdilution method
[3] = system: Aspergillus niger; assay: Antimicrobial activity against Aspergillus niger MTCC 282
[4] = system: Candida albicans; assay: Antimicrobial activity against Candida albicans MTCC 227
[5] = system: Streptococcus pyogenes; assay: Antimicrobial activity against Streptococcus pyogenes MTCC 443 by broth microdilution method
[6] = system: Staphylococcus aureus; assay: Antimicrobial activity against Staphylococcus aureus MTCC 96 by broth microdilution method
[7] = system: Aspergillus clavatus; assay: Antimicrobial activity against Aspergillus clavatus MTCC 1323
[8] = system: Mycobacterium tuberculosis; assay: Antimicrobial activity against Mycobacterium tuberculosis H37Rv; conditions: for MIC: Mycobacterium tuberculosis, H37Rv

Compound | MIC [1] [µg/mL] | MIC [2] [µg/mL] | MIC [3] [µg/mL] | MIC [4] [µg/mL] | MIC [5] [µg/mL] | MIC [6] [µg/mL] | MIC [7] [µg/mL] | inhibition (INH) [8] [%] | MIC [8] [µg/mL]
COc1ccc(-c2cc(N3CCCC3)n(-c3cccc(Cl)c3)c(=O)c2/N=N/c2ccc(C)cc2)cc1 | 200 (≈ 401 µM) | 200 (≈ 401 µM) | 250 (≈ 501 µM) | 250 (≈ 501 µM) | 200 (≈ 401 µM) | 200 (≈ 401 µM) | 250 (≈ 501 µM) | – | –
O=C(O)c1cn(C2CC2)c2cc(N3CCNCC3)c(F)cc2c1=O [CIPROFLOXACIN] | – | 25 (≈ 75.4 µM) | – | – | 50 (≈ 151 µM) | 50 (≈ 151 µM) | – | – | –
CO[C@H]1/C=C/O[C@@]2(C)Oc3c(C)c(O)c4c(O)c(c(/C=N/N5CCN(C)CC5)c(O)c4c3C2=O)NC(=O)/C(C)=C\C=C\[C@H](C)[C@H](O)[C@@H](C)[C@@H](O)[C@@H](C)[C@H](OC(C)=O)[C@@H]1C [RIFAMPIN] | – | – | – | – | – | – | – | 98 | 40 (≈ 48.6 µM)
COc1ccc(-c2cc(N3CCCC3)n(-c3cccc(Cl)c3)c(=O)c2/N=N/c2ccc(Cl)cc2[N+](=O)[O-])cc1 | 500 (≈ 886 µM) | 250 (≈ 443 µM) | 200 (≈ 354 µM) | 500 (≈ 886 µM) | 250 (≈ 443 µM) | 250 (≈ 443 µM) | 200 (≈ 354 µM) | 98 | 1000 (≈ 1770 µM)
COc1ccc(-c2cc(=O)n(-c3cccc(Cl)c3)c(N3CCCC3)c2/N=N/c2cccc([N+](=O)[O-])c2)cc1 | 200 (≈ 377 µM) | 250 (≈ 472 µM) | 500 (≈ 943 µM) | 500 (≈ 943 µM) | 250 (≈ 472 µM) | 250 (≈ 472 µM) | 500 (≈ 943 µM) | – | –
COc1ccc(-c2cc(=O)n(-c3cccc(Cl)c3)c(N3CCCC3)c2/N=N/c2c(Cl)cc([N+](=O)[O-])c(Cl)c2Cl)cc1 | 250 (≈ 395 µM) | 250 (≈ 395 µM) | 1000 (≈ 1580 µM) | 250 (≈ 395 µM) | 200 (≈ 316 µM) | 200 (≈ 316 µM) | 1000 (≈ 1580 µM) | – | –
COc1ccc(-c2cc(N3CCCC3)n(-c3cccc(Cl)c3)c(=O)c2/N=N/c2cccc(C)c2)cc1 | 250 (≈ 501 µM) | 250 (≈ 501 µM) | 500 (≈ 1000 µM) | 500 (≈ 1000 µM) | 200 (≈ 401 µM) | 150 (≈ 301 µM) | 500 (≈ 1000 µM) | – | –
COC1=CC(=O)C[C@@H](C)[C@]12Oc1c(Cl)c(OC)cc(OC)c1C2=O [GRISEOFULVIN] | – | – | 100 (≈ 283 µM) | 500 (≈ 1420 µM) | – | – | 100 (≈ 283 µM) | – | –
COc1ccc(-c2cc(=O)n(-c3cccc(Cl)c3)c(N3CCCC3)c2/N=N/c2ccc(Cl)c(Cl)c2)cc1 | 200 (≈ 361 µM) | 62.5 (≈ 113 µM) | 500 (≈ 903 µM) | 100 (≈ 181 µM) | 500 (≈ 903 µM) | 200 (≈ 361 µM) | 1000 (≈ 1810 µM) | – | –
COc1ccc(-c2cc(=O)n(-c3cccc(Cl)c3)c(N3CCCC3)c2/N=N/c2ccc([N+](=O)[O-])cc2Cl)cc1 | 250 (≈ 443 µM) | 250 (≈ 443 µM) | 500 (≈ 886 µM) | 500 (≈ 886 µM) | 200 (≈ 354 µM) | 200 (≈ 354 µM) | 500 (≈ 886 µM) | – | –
COc1ccc(-c2cc(=O)n(-c3cccc(Cl)c3)c(N3CCCC3)c2/N=N/c2ccccc2)cc1 | 500 (≈ 1030 µM) | 250 (≈ 515 µM) | 250 (≈ 515 µM) | 500 (≈ 1030 µM) | 250 (≈ 515 µM) | 250 (≈ 515 µM) | 500 (≈ 1030 µM) | – | –
COc1ccc(-c2cc(=O)n(-c3cccc(Cl)c3)c(N3CCCC3)c2/N=N/c2cc(Cl)ccc2Cl)cc1 | 500 (≈ 903 µM) | 100 (≈ 181 µM) | > 1000 | 1000 (≈ 1810 µM) | 500 (≈ 903 µM) | 500 (≈ 903 µM) | > 1000 | 99 | 100 (≈ 181 µM)
COc1ccc(-c2cc(=O)n(-c3cccc(Cl)c3)c(N3CCCC3)c2/N=N/c2ccc([N+](=O)[O-])cc2)cc1 | 250 (≈ 472 µM) | 250 (≈ 472 µM) | > 1000 | 500 (≈ 943 µM) | 250 (≈ 472 µM) | 500 (≈ 943 µM) | 500 (≈ 943 µM) | – | –
COc1ccc(-c2cc(N3CCCC3)n(-c3cccc(Cl)c3)c(=O)c2/N=N/c2ccccc2)cc1 | 100 (≈ 206 µM) | 62.5 (≈ 129 µM) | 500 (≈ 1030 µM) | 200 (≈ 412 µM) | 250 (≈ 515 µM) | 200 (≈ 412 µM) | 500 (≈ 1030 µM) | – | –
COc1ccc(-c2cc(N3CCCC3)n(-c3cccc(Cl)c3)c(=O)c2/N=N/c2ccc([N+](=O)[O-])cc2Cl)cc1 | 250 (≈ 443 µM) | 250 (≈ 443 µM) | 500 (≈ 886 µM) | 250 (≈ 443 µM) | 200 (≈ 354 µM) | 200 (≈ 354 µM) | 500 (≈ 886 µM) | – | –
COc1ccc(-c2cc(N3CCCC3)n(-c3cccc(Cl)c3)c(=O)c2/N=N/c2ccccc2[N+](=O)[O-])cc1 | 200 (≈ 377 µM) | 100 (≈ 189 µM) | 500 (≈ 943 µM) | 500 (≈ 943 µM) | 100 (≈ 189 µM) | 100 (≈ 189 µM) | 500 (≈ 943 µM) | – | –
COc1ccc(-c2cc(=O)n(-c3cccc(Cl)c3)c(N3CCCC3)c2/N=N/c2ccc(Cl)cc2)cc1 | 500 (≈ 963 µM) | 100 (≈ 193 µM) | 500 (≈ 963 µM) | 100 (≈ 193 µM) | 500 (≈ 963 µM) | 500 (≈ 963 µM) | 500 (≈ 963 µM) | – | –
COc1ccc(-c2cc(N3CCCC3)n(-c3cccc(Cl)c3)c(=O)c2Cn2cncn2)cc1 | 100 (≈ 216 µM) | 100 (≈ 216 µM) | 250 (≈ 541 µM) | 200 (≈ 433 µM) | 200 (≈ 433 µM) | 250 (≈ 541 µM) | 500 (≈ 1080 µM) | 98 | 500 (≈ 1080 µM)
